Read-outs that look alike come from different tables or passages of the source.
Assays:
[1] = molecular target: T1, PERK (Homo sapiens, UniProt Q9NZJ5); assay: PERK biochemical LanthaScreen TR-FRET assay (GFP-eIF2a phosphorylation)
T1 sequence (Q9NZJ5 30-1116): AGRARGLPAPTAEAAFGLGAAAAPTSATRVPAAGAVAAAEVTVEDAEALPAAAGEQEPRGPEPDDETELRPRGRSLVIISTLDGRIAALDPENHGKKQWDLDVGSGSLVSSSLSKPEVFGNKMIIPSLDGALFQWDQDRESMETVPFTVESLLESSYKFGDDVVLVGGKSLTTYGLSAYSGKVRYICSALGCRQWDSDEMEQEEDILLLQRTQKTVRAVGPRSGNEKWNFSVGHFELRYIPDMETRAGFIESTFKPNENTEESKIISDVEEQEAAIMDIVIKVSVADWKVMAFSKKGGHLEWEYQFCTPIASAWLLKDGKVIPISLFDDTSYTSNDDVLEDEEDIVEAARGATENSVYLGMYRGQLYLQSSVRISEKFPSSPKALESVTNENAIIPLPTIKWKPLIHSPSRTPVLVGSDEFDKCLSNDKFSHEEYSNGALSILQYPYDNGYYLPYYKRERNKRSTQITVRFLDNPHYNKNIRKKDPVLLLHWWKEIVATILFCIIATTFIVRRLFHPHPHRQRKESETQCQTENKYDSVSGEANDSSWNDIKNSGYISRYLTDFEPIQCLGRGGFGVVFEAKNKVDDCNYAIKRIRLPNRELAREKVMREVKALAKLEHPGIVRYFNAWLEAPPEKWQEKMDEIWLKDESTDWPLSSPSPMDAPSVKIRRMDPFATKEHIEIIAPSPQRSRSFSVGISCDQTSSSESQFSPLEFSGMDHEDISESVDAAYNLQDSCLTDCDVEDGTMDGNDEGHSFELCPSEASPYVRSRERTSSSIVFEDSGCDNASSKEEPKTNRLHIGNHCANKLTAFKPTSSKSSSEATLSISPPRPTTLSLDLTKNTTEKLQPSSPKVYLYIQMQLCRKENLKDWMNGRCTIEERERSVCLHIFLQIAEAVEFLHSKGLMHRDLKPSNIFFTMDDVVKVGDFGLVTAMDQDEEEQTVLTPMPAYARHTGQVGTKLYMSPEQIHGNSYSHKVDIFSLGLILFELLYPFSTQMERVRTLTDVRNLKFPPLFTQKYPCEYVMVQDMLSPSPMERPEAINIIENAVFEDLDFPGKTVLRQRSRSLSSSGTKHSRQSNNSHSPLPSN
Procedure: Methods used to evaluate biochemical PERK activity are described and published elsewhere. In brief, biochemical PERK activity is evaluated using a LanthaScreenTM ([…]) TR-FRET assay to detect phosphorylation of a GFP-tagged eIF2a substrate (ThermoFisher). Excitation at […] of a terbium chelate donor fluorophore in an eIF2a antibody results in energy transfer to GFP acceptor fluorophore upon eIF2a phosphorylation by PERK. Reaction buffer was composed of 50 mM HEPES (pH 7.4), 10 mM MgCl2, 1 mM EGTA and 0.01% (v/v) BrijTM-35. Reactions were initiated by the addition of substrate and ATP, followed by incubation for 1 h at RT prior to addition of EDTA and the anti-peIF2a antibody. FRET was measured by an EnVision Plate Reader (PerkinElmer). Data were plotted as percent inhibition along a 10-point 3-fold dilution series of inhibitors. IC50 values were calculated using 4-parameter logistical fitting in XLFit.
(§1) The PERK activity of analog I was evaluated using cell-free biochemical assays. In these assays, PERK phosphorylation of eIF2a was assessed using a FRET-based labelled protein assay. Compounds were then evaluated for cellular activity by quantifying inhibition of eIF2a phosphorylation in HEK293 cells treated with the ER inducer tunicamycin [7].

[2] = system: p-eIF2α; assay: Cellular PERK inhibition: p-eIF2a TR-FRET in tunicamycin-treated HEK293-EGFP-eIF2a cells; format: cell-based
Procedure: Methods used to evaluate in vitro cellular PERK inhibition are described and published elsewhere. In brief, stableHEK293 cells were created using lentiviral particles harboring a GFP-eIF2a expression vector. Transfectants were selected by puromycin and enriched using fluorescent cell sorting based on GFP expression. HEK293-EGFP-eIF2a cells were plated at 5000 cells/well in 384-well assay plates and incubated overnight. The following day, pyrrolopyrimidine analogs were added to wells using an Echo acoustic dispenser and incubated for 30 min. ER stress was induced by the addition of tunicamycin to the wells at […] for 2 h. Cells were lysed and peIF2a was evaluated using a TR-FRET system, as described above.
as §1

[3] = cell-free TR-FRET, GFP-eIF2a substrate, read-out: PERK IC50
[4] = Homo sapiens, HEK293 cells, tunicamycin-induced ER stress, read-out: p-eIF2α IC50
[5] = bound stated, read-out: biochemical potency
[6] = bound stated, read-out: cellular potency

| Structure (SMILES) | IC50 [1, 3] [nM] | IC50 [2, 4] [nM] | IC50 [1, 5] [nM] | IC50 [2, 6] [nM] |
| --- | --- | --- | --- | --- |
| Cc1cc(NC(=O)Oc2ccccc2)ccc1-c1cn(C)c2ncnc(N)c12 [Compound 18] | 3980 | > 10000 |  |  |
| Cc1nc(N)c2c(-c3ccc(NC(=O)C(O)c4ccccc4C(F)(F)F)cc3C)cn(C)c2n1 (stereo not drawn) [Compound 27] | 343 | 2050 |  |  |
| C#Cc1cccc([C@@H](O)C(=O)Nc2ccc(-c3cn(C)c4nc(C)nc(N)c34)c(C)c2)c1 [Compound 32] | 3 | 7.8 |  |  |
| Cc1nc(N)c2c(-c3ccc(NC(=O)[C@H](O)c4cccc(C(F)F)c4)cc3C)cn(C)c2n1 [Compound 34] | 5.9 | 21 |  |  |
| Cc1nc(N)c2c(-c3ccc(NC(=O)[C@H](O)c4cccc(C5CC5)c4)cc3C)cn(C)c2n1 [Compound 35] | 5.9 | 17 |  |  |
| Cc1nc(N)c2c(-c3ccc(NC(=O)[C@H](O)c4cccc(C#N)c4)cc3C)cn(C)c2n1 [Compound 36] | 8 | 325 |  |  |
| Cc1nc(N)c2c(-c3ccc(NC(=O)[C@H](O)c4cccc(S(C)(=O)=O)c4)cc3C)cn(C)c2n1 [Compound 37] | > 1000 | > 10000 |  |  |
| Cc1nc(N)c2c(-c3ccc(NC(=O)[C@H](O)c4cc(F)cc(Cl)c4)cc3C)cn(C)c2n1 [Compound 40] | 2.9 | 8.5 |  |  |
| Cc1nc(N)c2c(-c3ccc(NC(=O)[C@H](O)c4cc(F)cc(C#N)c4)cc3C)cn(C)c2n1 [Compound 42] | 4.2 | 32 |  |  |
| Cc1nc(N)c2c(-c3ccc(NC(=O)[C@H](O)c4cncc(F)c4)cc3C)cn(C)c2n1 [Compound 43] | 52 | 562 |  |  |
| Cc1nc(N)c2c(-c3ccc(NC(=O)[C@H](O)c4cncc(Cl)c4)cc3C)cn(C)c2n1 [Compound 44] | 17 | 129 |  |  |
| Cc1nc(N)c2c(-c3ccc(NC(=O)[C@H](O)c4cncc(C(F)(F)F)c4)cc3C)cn(C)c2n1 [Compound 45] | 19 | 165 |  |  |
| Cc1nc(N)c2c(-c3ccc(NC(=O)[C@H](O)c4cccc(F)c4)cc3F)cn(C)c2n1 [Compound 46] | 2.2 | 41 |  |  |
| Cc1nc(N)c2c(-c3ccc(NC(=O)[C@H](O)c4cccc(C(F)(F)F)c4)cc3F)cn(C)c2n1 [Compound 47, (R)-N-(4-(4-amino-2,7-dimethyl-7H-pyrrolo[2,3-d]pyrimidin-5-yl)-3-fluorophenyl)-2-hydroxy-2-(3-(trifluoromethyl)phenyl)acetamide] | 5.1 | 11 | < 5 | < 15 |
| Cc1cccc([C@@H](O)C(=O)Nc2ccc(-c3cn(C)c4nc(C)nc(N)c34)c(F)c2)c1 [Compound 49] | 1.1 | 17 |  |  |
| CCc1cccc([C@@H](O)C(=O)Nc2ccc(-c3cn(C)c4nc(C)nc(N)c34)c(F)c2)c1 [Compound 50] | 0.9 | 25 |  |  |
| Cc1nc(N)c2c(-c3ccc(NC(=O)[C@H](O)c4cc(F)cc(C(F)(F)F)c4)cc3F)cn(C)c2n1 [Compound 51] | 2.7 | 62 |  |  |
| Cc1cc(F)cc([C@@H](O)C(=O)Nc2ccc(-c3cn(C)c4nc(C)nc(N)c34)c(F)c2)c1 [Compound 52] | 1.1 | 11 | < 5 | < 15 |
| Cc1nc(N)c2c(-c3ccc(NC(=O)[C@H](O)c4cccc(F)c4)cc3Cl)cn(C)c2n1 [Compound 53] | 17 | 56 |  |  |
| Cc1nc(N)c2c(-c3ccc(NC(=O)[C@H](O)c4cccc(C(F)(F)F)c4)cc3Cl)cn(C)c2n1 [Compound 54] | 2.7 | 21 |  |  |
| Cc1nc(N)c2c(-c3ccc(NC(=O)[C@H](O)c4cccc(Cl)c4)cc3Cl)cn(C)c2n1 [Compound 55] | 1.6 | 17 |  |  |
| Cc1cccc([C@@H](O)C(=O)Nc2ccc(-c3cn(C)c4nc(C)nc(N)c34)c(Cl)c2)c1 [Compound 56] | 4.1 | 18 |  |  |
| CCc1cccc([C@@H](O)C(=O)Nc2ccc(-c3cn(C)c4nc(C)nc(N)c34)c(Cl)c2)c1 [Compound 57] |  | 14 | < 5 | < 15 |
| Cc1nc(N)c2c(-c3ccc(NC(=O)[C@H](O)c4cccc(F)c4)cc3C(F)(F)F)cn(C)c2n1 [Compound 58] | 8.5 | 204 |  |  |
| CCc1cc(NC(=O)[C@H](O)c2cccc(F)c2)ccc1-c1cn(C)c2nc(C)nc(N)c12 [Compound 59] | 4 | 41 |  |  |

Further lines, results first:

| IC50 [1, 3] [nM] | IC50 [2, 4] [nM] | IC50 [1, 5] [nM] | IC50 [2, 6] [nM] | Structure (SMILES) |
| --- | --- | --- | --- | --- |
| 7.8 | 57 |  |  | Cc1cc(NC(=O)[C@@H](O)c2cccc(F)c2)ccc1-c1cn(C)c2ncnc(N)c12 [Compound 12, (S)-N-(4-(4-amino-7-methyl-7H-pyrrolo[2,3-d]pyrimidin-5-yl)-3-methylphenyl) -2-(3-fluorophenyl) -2-hydroxyacetamide] |
| 1.8 | 23 |  |  | Cc1cc(NC(=O)[C@H](O)c2ccccc2)ccc1-c1cn(C)c2ncnc(N)c12 [Compound 13] |
| 5.2 | 41 |  |  | Cc1cc(NC(=O)Cc2ccccc2)ccc1-c1cn(C)c2ncnc(N)c12 [Compound 14] |
| 126 | 1930 |  |  | Cc1cc(NC(=O)CCc2ccccc2)ccc1-c1cn(C)c2ncnc(N)c12 [Compound 15] |
| 168 | 3960 |  |  | Cc1cc(NC(=O)c2ccccc2)ccc1-c1cn(C)c2ncnc(N)c12 [Compound 16] |
| 300 | 532 |  |  | Cc1cc(NC(=O)C(F)(F)c2ccccc2)ccc1-c1cn(C)c2ncnc(N)c12 [Compound 17] |
| 21 | 211 |  |  | Cc1cc(NC(=O)Nc2ccccc2)ccc1-c1cn(C)c2ncnc(N)c12 [Compound 19] |
| 108 | 1750 |  |  | Cc1cc(NC(=O)N(C)c2ccccc2)ccc1-c1cn(C)c2ncnc(N)c12 [Compound 20] |
| 14 | 174 |  |  | CO[C@@H](C(=O)Nc1ccc(-c2cn(C)c3ncnc(N)c23)c(C)c1)c1ccccc1 [Compound 21] |
| 56 | 184 |  |  | Cc1cc(NC(=O)C(C)(O)c2ccccc2)ccc1-c1cn(C)c2ncnc(N)c12 (stereo not drawn) [Compound 22] |
| 33 | 581 |  |  | Cc1cc(NC(=O)[C@H](N)c2ccccc2)ccc1-c1cn(C)c2ncnc(N)c12 [Compound 23] |
| 102 | 303 |  |  | Cc1nc(N)c2c(-c3ccc(NC(=O)[C@H](O)c4ccccc4F)cc3C)cn(C)c2n1 [Compound 25] |
| 107 | 713 |  |  | Cc1nc(N)c2c(-c3ccc(NC(=O)[C@H](O)c4ccccc4Cl)cc3C)cn(C)c2n1 [Compound 29] |
| 14 | 83 |  |  | Cc1cccc([C@@H](O)C(=O)Nc2ccc(-c3cn(C)c4nc(C)nc(N)c34)c(C)c2)c1 [Compound 30] |
| 26 | 122 |  |  | Cc1nc(N)c2c(-c3ccc(NC(=O)C(O)c4ccccc4C)cc3C)cn(C)c2n1 (stereo not drawn) [Compound 31] |
| 3 | 14 |  |  | Cc1nc(N)c2c(-c3ccc(NC(=O)[C@H](O)c4cccc(Br)c4)cc3C)cn(C)c2n1 [Compound 33] |
